Laboratory results as given in patent US9765063B2, “Amido compounds as RORγt modulators and uses thereof” (New York University, priority 2011, dated 2017).
“Also recorded” adds a separate entry of the source.

Assays:
[1] = Half-life in Human Liver Microsomes (HLM); format: in vitro ADME
Protocol: Test compounds (1 μM) are incubated with 3.3 mM MgCl2 and 0.78 mg/mL HLM (HL101) in 100 mM potassium phosphate buffer (pH 7.4) at 37° C. on the 96-deep well plate. The reaction mixture is split into two groups, a non-P450 and a P450 group. NADPH is only added to the reaction mixture of the P450 group. An aliquot of samples of the P450 group is collected at 0, 10, 30, and 60 min time points, where the 0 min time point indicated the lime at which NADPH is added into the reaction mixture of the P450 group. […] Collected aliquots are extracted with acetonitrile solution containing an internal standard. […] The compound concentration in supernatant is measured by LC/MS/MS system.
The half-life value is obtained by plotting the natural logarithm of the peak area ratio of compounds/internal standard versus time. The slope of the line of best fit through the points yields the rate of metabolism (k). This is converted to a half-life value using following equations: Half-life=ln 2/k

RORα = RORα overexpression dependent IL17a production in human CD4 T cells (FIG. 3); format: cell-based; conditions: FIG. 3, FACS, 0.5 μM; listed as NCGC00242624
Protocol: Briefly, CD3+ CD4+ CD45RA+ naive human T cells were isolated from peripheral blood derived from healthy donors. The naive T cells were cultured in XVIVO-20 (Lonza) medium for 7 days in the presence of IL2 and stimulatory CD3 and CD28 antibodies. Cells were infected with lentivirus encoding human RORα or RORγ and compound or DMSO was added on day 2. FACS plot analysis is shown after gating on GFP expressing (virus infected) cells.

[2] = tested on: human Th17 cell differentiation; assay: Human Th17 cell differentiation (FACS, FIG. 2); format: cell-based; conditions: FIG. 2, FACS, 0.5 μM; listed as NCGC00242624
Protocol: • 1) S2 cell reporter system: Identified hits from HTS are further screened and their specificity confirmed by testing against RORγ-luc, VP16-luc, RORα-luc, and DHR3-luc reporter S2 cell lines. Compounds either having no activity on VP16, RORα, and DHR3 or having ten times higher IC50 values on such reporters are selected for further tests. • 2) Cytokine induced mouse Th17 cells differentiation. Effects on mouse endogenous RORγt in a relevant physiological setting were determined by testing compounds in the Th17 cell differentiation assay. Compounds having RORγt inhibitory activity are predicted to suppress Th17 cell differentiation. Th1 or regulatory T cell differentiation was used as a counter-screen method to select specific compounds that only affect Th17 cell differentiation without having pleiotrophic effects on general T cell proliferation or cytokine production. • 3) ROR dependent Th17 cell differentiation. Compounds were further tested, by examining their effects on T cells expressing RORα or RORγ. […] Compounds affecting IL17a production or ROR regulatory pathways, however, are expected to inhibit both. • 4) Human Th17 cell differentiation. Compound effects on human RORγt will be tested by treating human cord blood CD4 T cells with select compounds to determine if such compounds alter differentiation into Th17 lineages.
(§1) For Th1 differentiation, IL12 (10 ng/ml) and IL2 (100 U/ml) were added to naive CD4 T cell cultures instead of TGFβ and IL6.

[3] = tested on: mouse Th17 cell differentiation; assay: Th17 assay: mouse Th17 polarization (IL-17a producing cells, FACS); format: cell-based
Protocol: (§2) Percentage of DMSO treated IL-17a producing cells was set at 100. Naive mouse CD4 T cells (CD25^−, CD62L^+, and CD44^low-int) were sorted and cultured with CD3/CD28 stimulatory antibodies in the presence of TGFβ (0.1 ng/ml) and IL6 (20 ng/ml). Compounds were added on Day 1 and cells were analyzed on Day 4. For intracellular cytokine staining, cells were incubated for 5 h with phorbol ester (50 ng/ml; Sigma), ionomycin (500 ng/ml; Sigma) and GolgiStop (BD). When needed, surfaces were stained by incubation for 15 min on ice with PECy7-conjugated CD4 (BD Biosciences). The Cytofix/Cytoperm buffer set (BD) was used for intracellular staining. Cells were fixed and made permeable for 30 min on ice and were stained for 30 min on ice in permeabilization buffer with Alexa647-conjugated anti-IL17a (eBioscience) and PE-conjugated anti-IFNg (eBioscience). An LSR II (BD Biosciences) and FlowJo software (Tree Star) were used for flow cytometry. RORg IC50 value acquired from the S2 cell reporter assay is listed for comparison.
as §2, with “With respect to the methodological details pertaining to FIG. 1, naive” for “Percentage of DMSO treated IL-17a producing cells was set at 100. Naive mouse”, “(BD).” for “(BD). When needed, surfaces were stained by incubation for 15 min on ice with PECy7-conjugated CD4 (BD Biosciences).”, “anti-IFNγ” for “anti-IFNg”, “cytometry.” for “cytometry. RORg IC50 value acquired from the S2 cell reporter assay is listed for comparison.”

[4] = tested on: human Th1 cell differentiation; assay: Human Th1 cell differentiation, IFNγ production (counter-screen, FIG. 2); format: cell-based; conditions: FIG. 2, FACS, 0.5 μM, naive CD4 T cells, IL12 and IL2; listed as NCGC00242624
Protocol: as §1

Compound: COc1cc(O)c(C(CC(=O)N2CC(C)CC(C)C2)c2ccc(C(=O)O)cc2)c(OC)c1 (stereo not shown) [Compound 99, 4-(3-(3,5-Dimethylpiperidin-1-yl)-1-(2-hydroxy-4,6-dimethoxyphenyl)-3-oxopropyl)benzoic acid]
- % Remaining @ 60 min ([1]; 1 μM compound, 0.78 mg/mL HLM, 37° C., 60 min): 51.36%
- stability compared with compounds 150 and 157 ([1]; HLM, Table 3 data): better or improved stability over the compounds with IDs 150 and 157
- stability compared with verapamil ([1]; HLM, Table 3 data): improved stability with respect to verapamil
- half-life at 1 μM ([1]; human, human liver microsomes, pH 7.4, 1 μM compound, 0.78 mg/mL HLM, 37° C., Half-life=ln 2/k): 64.2 min
- microsomal CLint at 1 μM ([1]; human, human liver microsomes, pH 7.4, 1 μM compound, 0.78 mg/mL HLM, 37° C., read-out: CLint (uM/Min/mg proteins)): 21.6 µL/min/mg
- RORα overexpression dependent IL17a production in human CD4 T cells (RORα): unaffected
- human Th17 cell differentiation [2]: selectively suppress human Th17; also recorded: suppresses human Th17 cell differentiation to a degree similar to that of NCGC00238427; also recorded: selectively suppresses human Th17 cell differentiation
- mouse Th17 cell differentiation, as measured by IL17a production ([3]; FIG. 1, FACS, at the indicated concentrations, listed as NCGC00242624): suppresses mouse Th17 cell differentiation with similar activity to NCGC00238427; also recorded: suppress mouse Th17 cell differentiation
- IC50 ([3]; naive mouse CD4 T cells, TGFβ and IL6, compounds added Day 1, analyzed Day 4, read-out: Th 17 IC50): 1 to 10 µM
- Th1 cell differentiation, as measured by IFNγ production [4]: does not inhibit Th1 cell differentiation
